Data from patent US9169217B2, “Arylalkyl esters of 4-amino-6-(substituted phenyl)-picolinates and 6-amino-2-(substituted phenyl)-pyrimidinecarboxylates and their use as selective herbicides for crops” (Dow AgroSciences LLC, priority 2011, dated 2015).

Assays:
[1] = system: Scirpus juncoides ROXB. (Japanese bulrush); test: In-water applied herbicidal activity in transplanted paddy rice (Example 17); assay type: in vivo; settings: Schoenoplectiella juncoides, 504 h; rice cropping systems, in-water applied (paddy), 35 g ae/ha, 21 DAA; may represent multiple trials; read-out: Visual Injury (%) SCPJU
Outline: (§1)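 Ester forms of test compounds, in acetone diluted with aqueous Agri-dex (final 1.25% v/v crop oil concentrate), were injected into the flood water of paddy pots holding weeds or rice at the 2nd–3rd leaf stage in mud (pH ~7.3–7.8). Visual injury versus untreated plants was scored 0–100% after 3 weeks in greenhouse (~29/26 °C). GR50/GR80 were derived by probit analysis.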

[2] = system: Echinochloa crus-galli (L.) P.BEAUV. (barnyardgrass); test: as above; assay type: in vivo; settings: Echinochloa crus-galli, 504 h; rice cropping systems, in-water applied (paddy), 35 g ae/ha, 21 DAA; may represent multiple trials; read-out: Visual Injury (%) ECHCG
Outline: as §1

[3] = system: Scirpus juncoides ROXB. (Japanese bulrush); test: Postemergence foliar-applied herbicidal activity in direct seeded rice (Example 16); assay type: in vivo; settings: Schoenoplectiella juncoides, post-emergence, 504 h; rice cropping systems, foliar-applied, 17.5 g ae/ha, 21 DAA; may represent multiple trials; read-out: Visual Injury (%) SCPJU
Outline: (§2)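 Greenhouse plants at 2nd–3rd true leaf stage (10–17 d, ~29/26 °C, 14-h photoperiod) sprayed postemergence with ester forms in acetone–DMSO plus 1.25% crop oil concentrate at 187 L/ha. Visual injury scored 0–100% versus untreated plants after 3 weeks; GR50/GR80 derived by probit analysis.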

[4] = system: Aeschynomene sensitive SW./L. (sensitive jointvetch); test: as above; assay type: in vivo; settings: rice cropping systems, 17.5 g ae/ha, 21 DAA, may represent multiple trials
Outline: as §2

[5] = system: Cyperus iria L. (rice flatsedge); test: as above; assay type: in vivo; settings: rice cropping systems, 17.5 g ae/ha, 21 DAA, may represent multiple trials
Outline: as §2

[6] = system: Sesbania exaltata (RAF.) CORY/RYDB. (hemp sesbania); test: as above; assay type: in vivo; settings: rice cropping systems, 17.5 g ae/ha, 21 DAA, may represent multiple trials
Outline: as §2

[7] = system: Echinochloa colonum (L.) LINK (junglerice); test: as above; assay type: in vivo; settings: Echinochloa colona, post-emergence, 504 h, rice cropping systems, 17.5 g ae/ha, 21 DAA, may represent multiple trials, read-out: Visual Injury (%) ECHCO
Outline: as §2

[8] = system: Echinochloa crus-galli (L.) P.BEAUV. (barnyardgrass); test: as above; assay type: in vivo; settings: rice cropping systems, 17.5 g ae/ha, 21 DAA, may represent multiple trials
Outline: as §2

[9] = system: Cyperus esculentus L. (yellow nutsedge); test: as above; assay type: in vivo; settings: rice cropping systems, 17.5 g ae/ha, 21 DAA, may represent multiple trials
Outline: as §2

Structure (SMILES)	pest or weed control at 35 g/ha [1] [%]	pest or weed control at 35 g/ha [2] [%]	melting point [°C]	pest or weed control at 17.5 g/ha [3] [%]	Visual Injury (%) AESSE [4] [%]	Visual Injury (%) CYPIR [5] [%]	Visual Injury (%) SEBEX [6] [%]	pest or weed control at 17.5 g/ha [7] [%]	Visual Injury (%) ECHCG [8] [%]	Visual Injury (%) CYPES [9] [%]
CCOc1c(Cl)ccc(-c2nc(C(=O)OC)c(Cl)c(N)c2F)c1F [Compound A, methyl 4-amino-3-chloro-6-(4-chloro-3-ethoxy-2-fluorophenyl)-5-fluoropicolinate]	60	40	170 to 172	20	0	80	20	50	60	60
CCOc1c(Cl)ccc(-c2nc(C(=O)OCc3ccccc3)c(Cl)c(N)c2F)c1F [Compound 41, benzyl 4-amino-3-chloro-6-(4-chloro-3-ethoxy-2-fluorophenyl)-5-fluoropicolinate]	100	95	122 to 124	90	100	100	99	95	95	100
